Data as given in patent US6235738A, “Diphenyl-substituted heterocycles with 6-membered ring, processes for the preparation thereof and the use thereof as medicaments” (Boehringer Ingelheim Pharma KG, priority 1998, dated 2001).

Experiments:
[1] = target: Na^+ canal site 2 binding site; assay: Affinity for the "Na^+ canal site 2" binding site; conditions: tests typically at a test concentration of 10 μM
Method: The test of affinity for the "Na^+ canal site 2" binding site was carried out as described by G. B. Brown (J. Neurosci. 6 (1986) 2064). Tests were carried out typically at a test concentration of 10 μM.

[2] = tested on: AMPA receptor; assay: Inhibition of the signal induced by kainate on AMPA receptor (electrophysiology on neuronal cells, Patch-Clamp method); format: cell-based; conditions: concentration not given
Method: The effected on AMPA receptor was tested by electrophysiology on neuronal cells (Patch-Clamp method) (M. L. Mayer, L. Vyklicky and G. L. Westbrook, J. Physiol. 415(1989) 329-350).
Inhibition of the signal induced by kainate on AMPA receptor

SMILES | Ki [1] | AMPA Inh. [2]
CN(C)CCOc1ccccc1-c1cnnc(-c2ccccc2)n1 [Example 7, 5-{2-[2-(N,N-Dimethylamino)ethyl]oxy-phenyl}-3-phenyl-1,2,4-triazine] | 2400 nM | 98%
CN(C)CCOc1ccccc1-c1ncnc(-c2ccccc2)n1 [Example 6, 2-{2-[2-(N,N-Dimethylamino)ethyl]oxy-phenyl}-4-phenyl-1,3,5-triazine] | 2800 nM | 66%
CN(C)CCOc1ccccc1-c1nncc(-c2ccccc2)n1 [Example 8, 3-{2-[2-(N,N-Dimethylamino)ethyl]oxy-phenyl}-5-phenyl-1,2,4-triazine] | – | 95%
CN(C)CCOc1ccccc1-c1ccnc(-c2ccccc2)n1 [Example 4, 4-{2-[2-(N,N-Dimethylamino)ethyl]oxy-phenyl}-2-phenyl-pyrimidine] | 4000 nM | 96%
